Source: patent publication US10286038B2, “Lysosome membrane protein 2 (LIMP-2) based peptides and related uses” (Northwestern University, priority 2016, dated 2019)

Target: T1, recombinant GC (Cerezyme) (Homo sapiens, UniProt P04062, R534H)
T1 construct: purchased Genzyme Therapeutics, Boston, USA
T1 sequence (P04062 40-536 R534H): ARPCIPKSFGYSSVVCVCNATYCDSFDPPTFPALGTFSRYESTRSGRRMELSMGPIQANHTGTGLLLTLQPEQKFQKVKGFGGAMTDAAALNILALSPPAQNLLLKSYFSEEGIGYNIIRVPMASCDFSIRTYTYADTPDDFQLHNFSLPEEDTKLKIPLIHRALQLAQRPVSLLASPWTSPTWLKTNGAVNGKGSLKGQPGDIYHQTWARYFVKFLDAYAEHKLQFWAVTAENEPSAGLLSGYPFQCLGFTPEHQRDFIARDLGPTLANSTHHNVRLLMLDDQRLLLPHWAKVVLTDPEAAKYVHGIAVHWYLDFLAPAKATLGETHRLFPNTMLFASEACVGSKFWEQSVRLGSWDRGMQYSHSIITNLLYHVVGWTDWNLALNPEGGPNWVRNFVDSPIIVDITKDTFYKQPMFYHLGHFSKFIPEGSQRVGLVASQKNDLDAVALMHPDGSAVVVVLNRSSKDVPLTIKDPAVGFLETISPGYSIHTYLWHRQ
Test: recombinant GC activity assay
Format: biochemical
Settings: tenfold molar excess of peptide, acid pH, relative to buffer control
Description: Expression plasmids of LIMP-2 and human GC constructs were generated as described previously (1). For Western blotting nitrocellulose or PVDF membranes were used. EndoH/PNGaseF digests were performed according to manufacturer's instructions (New England Biolabs, Ipswich, USA). For co-immunoprecipitation experiments magnetic agarose G beads (Thermo Fisher Scientific, Waltham, USA) were utilized. Immunofluorescence studies were performed in cells as previously described (1, 3). Cellular co-localization of two proteins was determined by the Pearson's Index (35). Enzyme activity assays of cell lysates or recombinant protein were measured at acid pH using absorbent and fluorescent artificial substrates. For peptide studies, peptides were N-terminally tagged with biotin. If not stated otherwise, recombinant enzyme was incubated with a tenfold higher molarity of peptides. Conditions for pulldown experiments were kept at neutral pH. Protein modelling, molecular analyses, graphics and animations were performed with the UCSF Chimera package.
To determine the enzymatic activity of the recombinant enzymes, lyophilized enzymes were reconstituted in the NaPi buffer described above. The lyophilized samples of wild-type GC (Cerezyme®) and the custom-made recombinant N307S mutant enzyme contain 0.01% polysorbate 80 (Tween 80) (see prescription information for Cerezyme® at the website for Cerezyme®). As indicated in our experiments, the concentration of the detergent is sufficient to support active GC enzyme and to perform the in vitro GC activity assays without adding further detergents to the reaction mix. For enzyme activity assays of recombinant proteins, 0.1-0.2 nmol of GC (Cerezyme®; N370S) and LAMAN were used in the absence or presence of 10× the molar amount of LIMP-2-derived peptides (Table 1) or LIMP-2 ectodomain (1-2 nmol) (Table 3).
All activity assays were performed at acid pH.

Substance | increase of recombinant GC enzyme activity | increase of recombinant GC enzyme activity (listed as LIMP-2-derived helix 5 peptide)
Biotin-Ttds-KFERQLREIIEAMLKAYQQKLFVTHTVDEYGRKKRRQRRR [helix 5 TAT-peptide] | comparable effect | –
Biotin-Ttds-LREIIEAMLKAYQQKLFVTHTVDE [helix 5 peptide] | five times | five-fold increase
